According to paper PMC6493972, “Synthesis and Biological Evaluation of (E)-4-Hydroxy-3-methylbut-2-enyl Phosphate (HMBP) Aryloxy Triester Phosphoramidate Prodrugs as Activators of Vγ9/Vδ2 T-Cell Immune Responses” (Journal of Medicinal Chemistry, 2018):

Key:
PBMC = experiment: Specific cell death in PBMC cultures (ED50, viability dye); assay type: cell-based, human; settings: supplementary CSV
Experimental: Figure 2 Activation of human Vγ9/Vδ2^+ T cells by HMBP ProPAgens. (a) Human peripheral blood mononuclear cells (PBMC) were incubated with media or indicated concentrations of HMB-PP or zoledronate for 18 h. TCR Vγ9/Vδ2^+ T cells were then assessed for the upregulation of cell surface markers, CD69 and CD25. Data representative of n = 5. (b) As in (a), with PBMC incubated with indicated concentrations of HMBP ProPAgens. Data representative of n = 4. (c) As in (a) and (b), with data showing titrations of each of HMB-PP, zoledronate, and HMBP ProPAgens, alongside a medium control (M). Data from n = 4–5 donors. (d) EC50, ED50, and selectivity index (SI) values for each HMBP ProPAgens. Specific cell death, for ED50 values, was calculated after adjusting for nonspecific cell death in medium controls. (e) CD69 and CD25 activation in CD3^+ CD8^+ αβ T-cells for each compound.
I. T-cell isolation, culture and activation
PBMCs were isolated from heparinised venous blood from consented healthy donors (approved by the NRES Committee West Midlands ethical board; REC reference 14/WM/1254). Blood was layered over lymphoprep© (Stem Cell Technologies) and PBMC isolated according to manufacturers instructions. The cell culture medium used throughout was RPMI-1640 media supplemented with 2 mM L-glutamine, 25 mM HEPES, 1% sodium pyruvate, 50 μg/ml penicillin/streptomycin (Invitrogen) and 10% fetal calf serum (Sigma). For activation assays, 5 x 10^5 PBMC were cultured for 20 h in the presence of medium alone or the indicated concentrations of HMB-PP (Sigma), Zoledronate (Sigma), 5a, 5b, 5c and 5d (as described above). Cultured PBMC were labelled with Zombie© aqua viability dye (Biolegend) and cells were stained for surface antigens by antibodies directed against CD3 (UCHT1; […]
(§1) (IMMU360; 1:400); Beckman Coulter, and TCR Vδ2 (123R3; 1:200); Miltenyi. […] All cells were then labelled with Zombie© aqua viability dye and CFSE+ Zombie© aqua+ cells measured. All data were acquired on an LSR II (Beckton Dickinson) and data analysed with FlowJo V10.1 (TreeStar). Tabulated data were analysed in Graphpad PRISM 7

Vγ9/Vδ2 T-cells = experiment: Activation of Vγ9/Vδ2 T-cells in PBMC (upregulation of CD69 and CD25); assay type: cell-based; settings: human PBMC from healthy donors, 18 h, n = 4-5 donors, Figure 2d and text
[1] = test system: T24 urinary bladder carcinoma cell line; experiment: Specific lysis of pulsed T24 bladder carcinoma cells by expanded Vγ9/Vδ2 T cells; assay type: cell-based, human; settings: T24 pulsed 4 h with 10 nM ProPAgens or 10 μM zoledronate, cocultured 18 h with expanded Vγ9/Vδ2 T cells
Experimental: Next, we tested the potential for ProPAgens to sensitize the urinary bladder carcinoma cell line T24 for targeted killing by in vitro expanded Vγ9/Vδ2 T cells. Without sensitization, medium pulsed T24 cells were poorly targeted by increasing ratios of Vγ9/Vδ2 T cells, but upon pulsing for 4 h with zoledronate or ProPAgens 5a–d, T24 cells were specifically lysed (Figure 3a). […] In contrast, a 1000-fold lower concentration of each ProPAgen mediated a 2- to 4-fold increase in specific lysis of T24 over the same period (Figure 3b).
Figure 3 HMBP ProPAgens mediate the specific lysis of bladder cancer cells by Vγ9/Vδ2 T-cells. […] Specific killing of target cells was measured by amine-reactive dead cell marker staining. […] (b) As in (a) showing the mean ± SD specific killing of T24 cells at 1:10 target/effector ratio for each indicated treatment, n = 2: (∗) P < 0.05; (∗∗) P < 0.01; determined by one-way ANOVA. […]
as §1

[2] = target: T1, carboxypeptidase cathepsin A (Homo sapiens, UniProt P10619); experiment: In vitro cathepsin A mediated degradation monitored by 31P NMR and mass spectroscopy; assay type: in vitro ADME; settings: after 72 h
T1 sequence (P10619 29-480): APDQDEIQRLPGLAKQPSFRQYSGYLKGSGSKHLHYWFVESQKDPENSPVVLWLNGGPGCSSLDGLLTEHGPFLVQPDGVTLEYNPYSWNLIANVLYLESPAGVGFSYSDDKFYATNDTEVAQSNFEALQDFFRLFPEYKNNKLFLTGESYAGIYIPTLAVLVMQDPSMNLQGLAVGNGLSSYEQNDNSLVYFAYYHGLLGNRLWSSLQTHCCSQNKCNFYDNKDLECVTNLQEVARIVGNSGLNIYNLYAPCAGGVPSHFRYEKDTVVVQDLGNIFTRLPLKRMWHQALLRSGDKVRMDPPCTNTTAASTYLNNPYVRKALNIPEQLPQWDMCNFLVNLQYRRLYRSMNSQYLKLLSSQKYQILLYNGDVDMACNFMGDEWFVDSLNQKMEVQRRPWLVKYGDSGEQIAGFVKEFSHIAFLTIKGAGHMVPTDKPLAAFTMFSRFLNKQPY
Experimental: In order to get an insight into the metabolism of ProPAgens 6a–d, compound 6d was incubated with the carboxypeptidase cathepsin A in vitro and the reaction was monitored with ^31P NMR. […] This may explain literature reports pursuing the phosphonates of HMBP where the −O-P- bond was replaced by a −CH2-P- one and lack of reports on the native HMBP phosphate prodrugs.[19]

| SMILES | ED50 (PBMC) | EC50, activation of Vγ9/Vδ2 T-cells (Vγ9/Vδ2 T-cells) | other results |
| --- | --- | --- | --- |
| C/C(=C\COP(=O)(O)OP(=O)(O)O)CO [HMBPP, (E)-4-hydroxy-3-methyl-but-2-enyl pyrophosphate] | >100 µM |  |  |
| COC(=O)[C@H](C)NP(=O)(OC/C=C(\C)CO[Si](C)(C)C(C)(C)C)Oc1ccccc1 (stereo partly drawn) [5a, Methyl ((((E)-4-((tert-Butyldimethylsilyl)oxy)-3-methylbut-2-en-1-yl)oxy)(phenoxy)phosphoryl)-L-alaninate] |  | low nanomolar activation |  |
| O.O=P(O)(O)C(O)(Cn1ccnc1)P(=O)(O)O [Zoledronate] | >100 µM |  | specific lysis/killing of T24 cells by Vγ9/Vδ2 T cells (in words) [1]: only a marginal increase |
| C/C(=C\COP(=O)(N[C@@H](C)C(=O)OC(C)C)Oc1ccccc1)CO[Si](C)(C)C(C)(C)C (stereo partly drawn) [5c, Isopropyl ((((E)-4-((tert-Butyldimethylsilyl)oxy)-3-methylbut-2-en-1-yl)oxy)(phenoxy)phosphoryl)-L-alaninate] |  | low nanomolar activation |  |
| C/C(=C\COP(=O)(N[C@@H](C)C(=O)OC(C)(C)C)Oc1ccccc1)CO (stereo partly drawn) [6d, tert-Butyl ((((E)-4-Hydroxy-3-methylbut-2-en-1-yl)oxy)(phenoxy)phosphoryl)-L-alaninate] |  |  | degradation product (major metabolite) after incubation with cathepsin A [2]: phosphate group masked with the aryl motif and the amino acid ester moiety |
| C/C(=C\COP(=O)(N[C@@H](C)C(=O)OC(C)(C)C)Oc1ccccc1)CO[Si](C)(C)C(C)(C)C (stereo partly drawn) [5d, tert-Butyl ((((E)-4-((tert-Butyldimethylsilyl)oxy)-3-methylbut-2-en-1-yl)oxy)(phenoxy)phosphoryl)-L-alaninate] | >100 µM | low nanomolar activation |  |
